According to patent publication US7393871B2, “Anionic and neutral complexes of ruthenium (II) with nitrogen oxide” (Siega S.R.L., priority 2003, dated 2008):
Like-named read-outs stand apart in the source and are kept apart here.

How the values were obtained:
[1] = tested on: MCF-7, a human hormone dependent mammary carcinoma cell line; assay: Cytotoxicity, cell viability (MTU test) on MCF-7 cells; assay type: cell-based; conditions: medium with 5% FCS
Experimental: (§1) The cytotoxicity of the ruthenium complexes prepared in Example 4 and 7 was tested on two significative tumor cell lines: MCF-7, a human hormone dependent mammary carcinoma cell line and TS/A, a murine adenocarcinoma cell line. At day 0 4000 TS/A cells and 5000 MCF-7 cells were sown in 96-welled dishes In 200 μl of culture medium. The culture medium used was RPMI medium supplemented with 10% FCS for the TS/A line and a mixture 1:1 of DMEM and F12 medium supplemented with 10% FCS for MCF-7. At day 1 the culture medium was removed and substituted with an identical medium containing 5% FCS only (control) or 5% FCS and the test compound (complex of example 4 or example 7) at the following concentrations: 0.1 μM, 1 μM, 3 μM, 10 μM, 30 μM, 100 μM, 300 μM, 600 μM and 1000 μM.
(§2) After 24, 48 and 72 hours cell viability was evaluated with a MTU test.

[2] = tested on: TS/A, a murine adenocarcinoma cell line; assay: Cytotoxicity, cell viability (MTU test) on TS/A cells; assay type: cell-based; conditions: medium with 5% FCS
Experimental: as §1, §2

[3] = 24 hours exposure, read-out: IC50 MCF-7 24 hours
[4] = 48 hours exposure, read-out: IC50 MCF-7 48 hours
[5] = 72 hours exposure, read-out: IC50 MCF-7 72 hours
[6] = 24 hours exposure, read-out: IC50 TSA 24 hours
[7] = 48 hours exposure, read-out: IC50 TSA 48 hours
[8] = 72 hours exposure, read-out: IC50 TSA 72 hours

Substance	IC50 [1, 3] [µM]	IC50 [1, 4] [µM]	IC50 [1, 5] [µM]	IC50 [2, 6] [µM]	IC50 [2, 7] [µM]	IC50 [2, 8] [µM]
[ImH][trans-Ru^IICl4(Me2SO—O)NO] [Complex of Ex. 4]	764	118	26	155	20	17
[Im2H][trans-Ru^IICl4(Im)NO] [Complex of Ex. 7]	532	143	18	141	39	33
